According to US12077503B2, “Substituted cyclic amides and their use as herbicides” (FMC CORPORATION, priority 2015, dated 2024):

Assays:
Format in all cases: in vivo
[1] = tested on: barnyardgrass (Echinochloa crus-galli); assay: Test G Pre-Emergence Protocol; details: Echinochloa crus-galli, pre-emergence, 312 h, evaluated after 13 days; for pest or weed control at 15.625 g/ha: 15.625 g ai/ha; for pest or weed control at 15.625 g/ha / pest or weed control at 250 g/ha: read-out: Barnyardgrass damage rating (100=total damage to plant; 0=no damage to plant); for pest or weed control at 62.5 g/ha: 62.5 g ai/ha, 100=total damage to plant, 0=no damage to plant, read-out: Barnyardgrass damage rating; for pest or weed control at 250 g/ha: 250 g ai/ha
Summary of the method: (§1)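 One day after sowing, pots are treated with a spray of test compound formulated in acetone/water 50:50 plus 0.5% Tween 20, giving 15.625, 62.5 or 250 g/ha. Evaluation on a 0–100 damage scale follows 13 days of glasshouse growth.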

corn (Zea mays) [2] = assay: Test G Pre-Emergence Protocol; details: Zea mays, pre-emergence, 312 h, evaluated after 13 days; for plant injury at 15.625 g/ha: 15.625 g ai/ha; for plant injury at 15.625 g/ha / plant injury at 250 g/ha: read-out: Corn damage rating (100=total damage to plant; 0=no damage to plant); for plant injury at 62.5 g/ha: 62.5 g ai/ha, 100=total damage to plant, 0=no damage to plant, read-out: Corn damage rating; for plant injury at 250 g/ha: 250 g ai/ha
Summary of the method: as §1

[3] = tested on: giant foxtail (Setaria faberi); assay: Test G Pre-Emergence Protocol; details: Setaria faberi, pre-emergence, 312 h, evaluated after 13 days; for pest or weed control at 15.625 g/ha: 15.625 g ai/ha; for pest or weed control at 15.625 g/ha / pest or weed control at 250 g/ha: read-out: Foxtail, Giant damage rating (100=total damage to plant; 0=no damage to plant); for pest or weed control at 62.5 g/ha: 62.5 g ai/ha, 100=total damage to plant, 0=no damage to plant, read-out: Foxtail, Giant damage rating; for pest or weed control at 250 g/ha: 250 g ai/ha
Summary of the method: as §1

[4] = tested on: ivy-leaved morning glory (Ipomoea hederacea); assay: Test G Pre-Emergence Protocol; details: Ipomoea, pre-emergence, 312 h, evaluated after 13 days; for pest or weed control at 15.625 g/ha: 15.625 g ai/ha; for pest or weed control at 15.625 g/ha / pest or weed control at 250 g/ha: read-out: Morningglory, Ivy-leaved damage rating (100=total damage to plant; 0=no damage to plant); for pest or weed control at 250 g/ha: 250 g ai/ha
Summary of the method: as §1

[5] = tested on: redroot pigweed (Amaranthus retroflexus); assay: Test G Pre-Emergence Protocol; details: Amaranthus retroflexus, pre-emergence, 312 h, evaluated after 13 days; for pest or weed control at 15.625 g/ha: 15.625 g ai/ha; for pest or weed control at 15.625 g/ha / pest or weed control at 250 g/ha: read-out: Pigweed, Redroot damage rating (100=total damage to plant; 0=no damage to plant); for pest or weed control at 62.5 g/ha: 62.5 g ai/ha, 100=total damage to plant, 0=no damage to plant, read-out: Pigweed, Redroot damage rating; for pest or weed control at 250 g/ha: 250 g ai/ha
Summary of the method: as §1

[6] = tested on: velvetleaf (Abutilon theophrasti); assay: Test G Pre-Emergence Protocol; details: Abutilon theophrasti, pre-emergence, 312 h, evaluated after 13 days; for pest or weed control at 15.625 g/ha: 15.625 g ai/ha; for pest or weed control at 15.625 g/ha / pest or weed control at 250 g/ha: read-out: Velvetleaf damage rating (100=total damage to plant; 0=no damage to plant); for pest or weed control at 62.5 g/ha: 62.5 g ai/ha, 100=total damage to plant, 0=no damage to plant, read-out: Velvetleaf damage rating; for pest or weed control at 250 g/ha: 250 g ai/ha
Summary of the method: as §1

[7] = tested on: barnyardgrass (Echinochloa crus-galli); assay: Test G Post-Emergence Protocol; details: Echinochloa crus-galli, post-emergence, 312 h, read-out: Barnyardgrass damage rating; for pest or weed control at 15.625 g/ha: 15.625 g ai/ha, evaluated after 13 days (100=total damage to plant; 0=no damage to plant); for pest or weed control at 62.5 g/ha: 62.5 g ai/ha; for pest or weed control at 62.5 g/ha / pest or weed control at 250 g/ha: evaluated after 13 days, 100=total damage to plant, 0=no damage to plant; for pest or weed control at 250 g/ha: 250 g ai/ha
Summary of the method: (§2)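 Sow in soil; grow 8 d (24/16 °C, 14 h light, 65% humidity); spray 15.625/62.5/250 g/ha in acetone:water 50:50 + 0.5% Tween 20; grow on, water twice daily; score damage 0–100 at 13 d.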

corn (Zea mays) [8] = assay: Test G Post-Emergence Protocol; details: Zea mays, post-emergence, 312 h, read-out: Corn damage rating; for plant injury at 15.625 g/ha: 15.625 g ai/ha, evaluated after 13 days (100=total damage to plant; 0=no damage to plant); for plant injury at 62.5 g/ha: 62.5 g ai/ha; for plant injury at 62.5 g/ha / plant injury at 250 g/ha: evaluated after 13 days, 100=total damage to plant, 0=no damage to plant; for plant injury at 250 g/ha: 250 g ai/ha
Summary of the method: as §2

[9] = tested on: giant foxtail (Setaria faberi); assay: Test G Post-Emergence Protocol; details: Setaria faberi, post-emergence, 312 h, read-out: Foxtail, Giant damage rating; for pest or weed control at 15.625 g/ha: 15.625 g ai/ha, evaluated after 13 days (100=total damage to plant; 0=no damage to plant); for pest or weed control at 62.5 g/ha: 62.5 g ai/ha
Summary of the method: as §2

[10] = tested on: ivy-leaved morning glory (Ipomoea hederacea); assay: Test G Post-Emergence Protocol; details: Ipomoea, post-emergence, 312 h, read-out: Morningglory, Ivy-leaved damage rating; for pest or weed control at 15.625 g/ha: 15.625 g ai/ha, evaluated after 13 days (100=total damage to plant; 0=no damage to plant); for pest or weed control at 62.5 g/ha: 62.5 g ai/ha; for pest or weed control at 62.5 g/ha / pest or weed control at 250 g/ha: evaluated after 13 days, 100=total damage to plant, 0=no damage to plant; for pest or weed control at 250 g/ha: 250 g ai/ha
Summary of the method: as §2

[11] = tested on: redroot pigweed (Amaranthus retroflexus); assay: Test G Post-Emergence Protocol; details: Amaranthus retroflexus, post-emergence, 312 h, read-out: Pigweed, Redroot damage rating; for pest or weed control at 15.625 g/ha: 15.625 g ai/ha, evaluated after 13 days (100=total damage to plant; 0=no damage to plant); for pest or weed control at 62.5 g/ha: 62.5 g ai/ha; for pest or weed control at 62.5 g/ha / pest or weed control at 250 g/ha: evaluated after 13 days, 100=total damage to plant, 0=no damage to plant; for pest or weed control at 250 g/ha: 250 g ai/ha
Summary of the method: as §2

[12] = tested on: velvetleaf (Abutilon theophrasti); assay: Test G Post-Emergence Protocol; details: Abutilon theophrasti, post-emergence, 312 h, read-out: Velvetleaf damage rating; for pest or weed control at 15.625 g/ha: 15.625 g ai/ha, evaluated after 13 days (100=total damage to plant; 0=no damage to plant); for pest or weed control at 62.5 g/ha: 62.5 g ai/ha; for pest or weed control at 62.5 g/ha / pest or weed control at 250 g/ha: evaluated after 13 days, 100=total damage to plant, 0=no damage to plant; for pest or weed control at 250 g/ha: 250 g ai/ha
Summary of the method: as §2

[13] = evaluated after 13 days, 100=total damage to plant, 0=no damage to plant

Row | Structure (SMILES) | pest or weed control at 15.625 g/ha [1] [%] | pest or weed control at 62.5 g/ha [1] [%] | pest or weed control at 250 g/ha [1] [%] | plant injury at 15.625 g/ha (corn (Zea mays) [2]) [%] | plant injury at 62.5 g/ha (corn (Zea mays) [2]) [%] | plant injury at 250 g/ha (corn (Zea mays) [2]) [%] | pest or weed control at 15.625 g/ha [3] [%] | pest or weed control at 62.5 g/ha [3] [%] | pest or weed control at 250 g/ha [3] [%] | pest or weed control at 15.625 g/ha [4] [%] | pest or weed control at 250 g/ha [4] [%] | pest or weed control at 15.625 g/ha [5] [%] | pest or weed control at 62.5 g/ha [5] [%] | pest or weed control at 250 g/ha [5] [%] | pest or weed control at 15.625 g/ha [6] [%] | pest or weed control at 62.5 g/ha [6] [%] | pest or weed control at 250 g/ha [6] [%] | pest or weed control at 15.625 g/ha [7] [%] | pest or weed control at 62.5 g/ha [7] [%] | pest or weed control at 250 g/ha [7] [%] | other results
1 | CON1C[C@H](c2ccc(F)c(F)c2)[C@@H](C(=O)Nc2ccc(F)c(F)c2F)C1=O [Compound 1679] | 50 | 80 | 90 | 0 | 0 | 60 | 90 | 90 | 90 | 0 | 10 | 10 | 10 | 30 | 10 | 10 | 60 | 40 | 80 | 90 | plant injury at 15.625 g/ha (corn (Zea mays) [8]): 0%; plant injury at 62.5 g/ha (corn (Zea mays) [8]): 0%; plant injury at 250 g/ha (corn (Zea mays) [8]): 60%; pest or weed control at 15.625 g/ha [9]: 80%; pest or weed control at 62.5 g/ha [9, 13]: 80%; pest or weed control at 250 g/ha ([9]; 250 g ai/ha, evaluated after 13 days, 100=total damage to plant, 0=no damage to plant): 80%; pest or weed control at 15.625 g/ha [10]: 0%; pest or weed control at 62.5 g/ha [10]: 50%; pest or weed control at 250 g/ha [10]: 40%; pest or weed control at 15.625 g/ha [11]: 0%; pest or weed control at 62.5 g/ha [11]: 30%; pest or weed control at 250 g/ha [11]: 50%; pest or weed control at 15.625 g/ha [12]: 0%; pest or weed control at 62.5 g/ha [12]: 20%; pest or weed control at 250 g/ha [12]: 40%
2 | CN1CC(c2cc(C#N)cc(C(F)(F)F)c2)C(C(=O)Nc2cccc(F)c2F)C1=O (stereo not shown) [Compound 1684] | 0 | 0 | 0 | 0 | 0 | 10 | 0 | 0 | 0 | 0 | 0 | 0 | 0 | 10 | 0 | 0 | 0 | 0 | 0 | 0 | pest or weed control at 62.5 g/ha ([4]; 62.5 g ai/ha, 100=total damage to plant, 0=no damage to plant, read-out: Morningglory, Ivy-leaved damage rating): 0%; plant injury at 15.625 g/ha (corn (Zea mays) [8]): 0%; plant injury at 62.5 g/ha (corn (Zea mays) [8]): 0%; plant injury at 250 g/ha (corn (Zea mays) [8]): 0%; pest or weed control at 15.625 g/ha [9]: 0%; pest or weed control at 62.5 g/ha [9, 13]: 0%; pest or weed control at 15.625 g/ha [10]: 0%; pest or weed control at 62.5 g/ha [10]: 0%; pest or weed control at 250 g/ha [10]: 0%; pest or weed control at 15.625 g/ha [11]: 0%; pest or weed control at 62.5 g/ha [11]: 0%; pest or weed control at 250 g/ha [11]: 0%; pest or weed control at 15.625 g/ha [12]: 0%; pest or weed control at 62.5 g/ha [12]: 0%; pest or weed control at 250 g/ha [12]: 0%
